For assay [1], the system named is vacuolar type H^+ -ATPase. The experiment in a line: Inhibition of vacuolar type H^+ -ATPase proton transport. Particulars: microsomes from mouse peritoneal macrophages; acridine orange uptake; concentration 1×10^-6 M; pH 7.0. Type of assay: biochemical. On the procedure: Test 1 (Inhibition of vacuolar type H^+ -ATPase proton transport): Test Method (a) Preparation of microsomes from mouse peritoneal macrophages Seven-week-old male ddY mice were injected intraperitoneally with 2 ml of 3% thioglycolate medium. After 3-5 days, the mice were decapitated, and the peritoneal macrophages were obtained by peritoneal lavage with 5-6 ml of Hanks' balanced salt solution (HBSS). The cells were washed twice with cold HBSS. Vesicles were prepared from the cells, homogenized in a Douncee homogenizer (20 strokes) in 10 ml of 250 mM sucrose, 5 mM Tris, 1 mM EGTA, 1 mM KHCO3 and 1 mM dithiothreitol, pH 7.0, at 4° C. After an initial centrifugation (1000× g for 5 minutes), the supernatant was centrifuged 6000× g for 15 minutes) to remove mitochondria and lysosomes. The supernatant was centrifuged at 42000× g for 30 minutes, and microsomal pellet was collected and stored at -80° C. (b) Measurement of proton transport Proton transport was assayed with a dual-wavelength spectrophotometer by monitering uptake of acridine orange (Reference 540 nm, Measurement 492 nm) [H. C. Blair, J. Cell. Biol., 102, 1164 (1986)] with aliquot of membrane vesicles suspended in […] of assay buffer containing 150 mM KCl, 10 mM bis-tris-propane, 2 mM MgCl2, […], […] oligomycin and test compounds (concentration: 1×10^-6 M), pH 7.0. The reaction was initiated by addition of 1 mM ATP. Results were expressed as the percent of control.

The test system of assay [2] is PTH-induced bone resorption (calvariae from Wistar rats). Put plainly: Bone organ culture: inhibition of PTH-induced bone resorption. The conditions noted are these: 144 h; Wistar rat calvariae; 10^-8 M human PTH (1-34); concentration 1×10^-6 M; six days. It is filed as cell-based. The method, then:
Test 2 (Bone organ culture) Test Method […] In control dishes, PTH was not added. Control and PTH control were exposed to an equivalent concentration of the vehicle. Six days later, the concentration of calcium ((Ca]) in the medium was measured by methylxylenol blue method and the percentage of inhibition of PTH-induced bone resorption was calculated according to following formula [formula] Cp: [Ca] in PTH control dishes CD: [Ca] in the test compound dishes C0 : [Ca] in control dishes

Where a name gives a salt, the structure may show the parent alone.

What is called inhibition is the percentage by which the read-out fell short of the control. Lower therefore signals little suppression.

Consider `C=CCc1cnc2c(NC(=O)c3c(Cl)cccc3Cl)cccc2c1Sc1ncc[nH]1` [28 (dihydrochloride), 8-(2,6-Dichlorobenzoylamino)-4-(imidazol-2-ylthio)-3-allylquinoline], for which the “Inhibition (%) of vacuolar type H^+ -ATPase proton transport” value (shortened to “Inhibition (%) of vacuolar type H^+”) in assay [1] is 94%. The same compound had an inhibition at 1 µM in assay [2] of 100%.

On to `Cl.N#Cc1cnc2c(NC(=O)c3c(Cl)cccc3Cl)cccc2c1Cn1ccnc1` [52 (hydrochloride), 3-cyano-8-(2,6-dichlorobenzoylamino)-4-(imidazol-1-ylmethyl)quinoline hydrochloride], for which, in assay [1], the “Inhibition (%) of vacuolar type H^+” value worked out at 100%. In assay [2], this compound displayed an inhibition at 1 µM of 100%.

Take `C=Cc1cnc2c(NC(=O)c3c(Cl)cccc3Cl)cccc2c1CC(=O)NCc1ccccn1` [71-(2), 8-(2,6-dichlorobenzoylamino)-4-[(pyridin-2-ylmethyl)carbamoylmethyl]-3-vinylquinoline]: the “Inhibition (%) of vacuolar type H^+” value in assay [1] is on record as 93%. In assay [2], at 1 µM the inhibition was 100%.

For `O=C(Nc1cccc2c(-n3cccn3)ccnc12)c1c(Cl)cccc1Cl` [85-(2) (free), 8-(2,6-Dichlorobenzoylamino)-4-(pyrazol-1-yl)quinoline], the “Inhibition (%) of vacuolar type H^+” value in assay [1] was found to be 97%. Besides, the inhibition at 1 µM in assay [2] was 100%.

`C#Cc1cnc2c(NC(=O)c3c(Cl)cccc3Cl)cccc2c1` [Example 5, 8-(2,6-dichlorobenzoylamino)-3-ethynylquinoline]: in assay [1], the “Inhibition (%) of vacuolar type H^+” value came to 100%. The same compound gave an inhibition at 1 µM in assay [2] of 98%.

(Values after patent publication US6008230A, “Quinoline compounds as H^+ -ATPases” (Fujisawa Pharmaceutical Co., Ltd., priority 1995, dated 1999).)
